The nature of series [1]: Stability in phosphate buffer (pH 7.4, 37 °C) followed by UV–Vis over 24 h. It is filed as physicochemical. The conditions noted are these: 50 µM. On the procedure: (§1) The stability of the gold complexes was analyzed by absorption UV spectroscopy. UV–Vis absorption spectra of the complexes were recorded on a Thermo Scientific spectrophotometer (Madrid, Spain). Solutions of C1–6 (5 × 10^−5 M) in 10 mM phosphate buffer (pH = 7.4, 137 mM NaCl) were prepared from 20 mM DMSO solutions of the complexes and thereafter monitored by measuring the electronic spectra over 24 h at 37 °C. To evaluate the stability in the presence of biological reductants, all complexes were pre-solved in a minimum amount of DMSO and then diluted in 10 mM phosphate buffer (pH 7.4, 20 mM NaCl) to a final concentration of 10 µM [41]. All experiments were measure on a quartz microplate. Studies with L-glutathion reduced (GSH) and ascorbic acid (AsA) were conducted by increasing the final concentration of 0 to 50 µM (GSH) and from 0–20 µM for AsA.
Due to the aqueous nature of the bloodstream, studies to understand the behavior of our complexes in such an environment were considered necessary in order to determine the stability in simulated physiological conditions, pH = 7.4 and 37 °C. […] Besides, in the cases of complexes C1–4, a low-intensity broad band was detected (322 nm) (Figure 2 and Figure S3). […]
This is usually associated with the formation of Au(III)-OH bonds, increasing the water solubility and, consequently, the intensity of absorbance. […]

Series [2] has as its system Caco-2 cells. The series is described as follows: Cell cycle analysis, PI staining flow cytometry. It is filed as cell-based, human. The conditions noted are these: 20 μM, 24 h. The protocol: After incubation with the complexes, the cells were collected, washed twice with PBS, fixed in 70% ice-cold ethanol, and stored at 4 °C for 24 h. After centrifugation, cells were resuspended in PBS containing PI (50 μg/mL) and RNase A (100 μg/mL). After incubation for 30 min at RT in the dark, PI-stained cells were analyzed for DNA content in a Gallios Flow Cytometer (Beckman Coulter). […] Cell cycle distribution was determined on a linear scale. The percentage of cells in cycle phases was determined using the Kaluza Analysis Software (Beckman Coulter).
To stop the uncontrolled replication of tumor cells is still one of the main aims in the chemotherapy field; thus, arresting the tumor cell cycle in as many stages as possible is considered crucial. […] As is known, the geometry and structure of the complex have a great impact on the action mechanism of the drug, so there are examples of gold(III) complexes that alter the cell cycle at the G0/G1 phase, but also others at G2/M phase.
Figure 5 Cell population (%) in each stage of the cell cycle obtained by flow cytometry after 24 h of incubation of the cells with DMSO (control) and gold(III) complexes 1, 5, and 6 (20 μM).

Series [3] can be described thus: Stability in the presence of reduced L-glutathione (GSH), UV–Vis. The conditions noted are these: GSH 0–50 µM, PBS, 37 °C, 24 h. It is filed as physicochemical. The protocol:
as §1
This is usually associated with the formation of Au(III)-OH bonds, increasing the water solubility and, consequently, the intensity of absorbance. […] We observed that our complexes were stable with the addition of GSH over 24 h, even in a high excess of GSH to Au(III) complexes (50 vs. 16 µM) (Figure S4), since no evidence of decomposition or new bands was detected. […]

For `Cc1ccc(-c2ccccn2)[c]([Au+][S]C(=S)N(C)C)c1.F[P-](F)(F)(F)(F)F` [Complex C1, [Au(tpy)(dmdtc)] PF6], the “Stability in PBS (UV–Vis spectra over time)” value in series [1] is reported as “absence of new bands around 550 nm”. In addition, the “effect on cell cycle (cells in G0/G1, S, G2/M phases) vs control” value (from here on “effect on cell cycle … vs control”) in series [2] is reported as “did not have a significant impact”. Take `CN(C)C(=S)[S][Au+][c]1ccccc1-c1ccccn1.F[P-](F)(F)(F)(F)F` [Complex C2, [Au(ppy)(dmdtc)]PF6]: the “Stability towards GSH (UV–Vis spectra)” value in series [3] was “slight changes in intensity”. Still for that read-out and setting: the value for `CCN(CC)C(=S)[S][Au+][c]1cc(C)ccc1-c1ccccn1.F[P-](F)(F)(F)(F)F` [Complex C3, [Au(tpy)(dedtc)]PF6] was “slight changes in intensity”. In the case of `Cc1ccc2[c](c1)[Au-]1([S]C(N(Cc3ccccc3)Cc3ccccc3)=[S+]1)[n+]1ccccc1-2.F[P-](F)(F)(F)(F)F` (stereo not shown) [Complex C5, [Au(tpy)(dbdtc)]PF6], the “Stability in PBS (UV–Vis spectra over time)” value in series [1] was “slight increase in the intensity of 328 nm band”. In series [2], the “effect on cell cycle … vs control” value is on record as “did not have a significant impact”. `F[P-](F)(F)(F)(F)F.S=C([S][Au+][c]1ccccc1-c1ccccn1)N(Cc1ccccc1)Cc1ccccc1` [Complex C6, [Au(ppy)(dbdtc)]PF6]: the “effect on cell cycle … vs control” value in series [2] is on record as “did not have a significant impact”.

The record behind these values is PMC8698672, “Selective Anticancer and Antimicrobial Metallodrugs Based on Gold(III) Dithiocarbamate Complexes” (Biomedicines, 2021).
